Biological target: FKBP8 (FK506 binding protein 8) (Homo sapiens, UniProt Q14318)
Experiment: microscale thermophoresis competition with recombinant proteins

FKBP8 (FK506 binding protein 8), sequence (Q14318 whole entry): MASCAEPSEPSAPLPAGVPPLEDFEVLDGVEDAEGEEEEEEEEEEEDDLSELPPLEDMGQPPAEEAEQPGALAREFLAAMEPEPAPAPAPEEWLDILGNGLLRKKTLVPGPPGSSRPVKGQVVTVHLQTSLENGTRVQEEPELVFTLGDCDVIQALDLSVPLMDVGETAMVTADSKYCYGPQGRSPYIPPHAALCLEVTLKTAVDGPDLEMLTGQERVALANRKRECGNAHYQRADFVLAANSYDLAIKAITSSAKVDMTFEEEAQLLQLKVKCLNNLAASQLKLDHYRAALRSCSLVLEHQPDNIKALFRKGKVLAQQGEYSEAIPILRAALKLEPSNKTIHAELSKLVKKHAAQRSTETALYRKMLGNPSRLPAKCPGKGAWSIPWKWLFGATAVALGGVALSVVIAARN
FKBP8 (FK506 binding protein 8), sequence (Q15746 whole entry partner): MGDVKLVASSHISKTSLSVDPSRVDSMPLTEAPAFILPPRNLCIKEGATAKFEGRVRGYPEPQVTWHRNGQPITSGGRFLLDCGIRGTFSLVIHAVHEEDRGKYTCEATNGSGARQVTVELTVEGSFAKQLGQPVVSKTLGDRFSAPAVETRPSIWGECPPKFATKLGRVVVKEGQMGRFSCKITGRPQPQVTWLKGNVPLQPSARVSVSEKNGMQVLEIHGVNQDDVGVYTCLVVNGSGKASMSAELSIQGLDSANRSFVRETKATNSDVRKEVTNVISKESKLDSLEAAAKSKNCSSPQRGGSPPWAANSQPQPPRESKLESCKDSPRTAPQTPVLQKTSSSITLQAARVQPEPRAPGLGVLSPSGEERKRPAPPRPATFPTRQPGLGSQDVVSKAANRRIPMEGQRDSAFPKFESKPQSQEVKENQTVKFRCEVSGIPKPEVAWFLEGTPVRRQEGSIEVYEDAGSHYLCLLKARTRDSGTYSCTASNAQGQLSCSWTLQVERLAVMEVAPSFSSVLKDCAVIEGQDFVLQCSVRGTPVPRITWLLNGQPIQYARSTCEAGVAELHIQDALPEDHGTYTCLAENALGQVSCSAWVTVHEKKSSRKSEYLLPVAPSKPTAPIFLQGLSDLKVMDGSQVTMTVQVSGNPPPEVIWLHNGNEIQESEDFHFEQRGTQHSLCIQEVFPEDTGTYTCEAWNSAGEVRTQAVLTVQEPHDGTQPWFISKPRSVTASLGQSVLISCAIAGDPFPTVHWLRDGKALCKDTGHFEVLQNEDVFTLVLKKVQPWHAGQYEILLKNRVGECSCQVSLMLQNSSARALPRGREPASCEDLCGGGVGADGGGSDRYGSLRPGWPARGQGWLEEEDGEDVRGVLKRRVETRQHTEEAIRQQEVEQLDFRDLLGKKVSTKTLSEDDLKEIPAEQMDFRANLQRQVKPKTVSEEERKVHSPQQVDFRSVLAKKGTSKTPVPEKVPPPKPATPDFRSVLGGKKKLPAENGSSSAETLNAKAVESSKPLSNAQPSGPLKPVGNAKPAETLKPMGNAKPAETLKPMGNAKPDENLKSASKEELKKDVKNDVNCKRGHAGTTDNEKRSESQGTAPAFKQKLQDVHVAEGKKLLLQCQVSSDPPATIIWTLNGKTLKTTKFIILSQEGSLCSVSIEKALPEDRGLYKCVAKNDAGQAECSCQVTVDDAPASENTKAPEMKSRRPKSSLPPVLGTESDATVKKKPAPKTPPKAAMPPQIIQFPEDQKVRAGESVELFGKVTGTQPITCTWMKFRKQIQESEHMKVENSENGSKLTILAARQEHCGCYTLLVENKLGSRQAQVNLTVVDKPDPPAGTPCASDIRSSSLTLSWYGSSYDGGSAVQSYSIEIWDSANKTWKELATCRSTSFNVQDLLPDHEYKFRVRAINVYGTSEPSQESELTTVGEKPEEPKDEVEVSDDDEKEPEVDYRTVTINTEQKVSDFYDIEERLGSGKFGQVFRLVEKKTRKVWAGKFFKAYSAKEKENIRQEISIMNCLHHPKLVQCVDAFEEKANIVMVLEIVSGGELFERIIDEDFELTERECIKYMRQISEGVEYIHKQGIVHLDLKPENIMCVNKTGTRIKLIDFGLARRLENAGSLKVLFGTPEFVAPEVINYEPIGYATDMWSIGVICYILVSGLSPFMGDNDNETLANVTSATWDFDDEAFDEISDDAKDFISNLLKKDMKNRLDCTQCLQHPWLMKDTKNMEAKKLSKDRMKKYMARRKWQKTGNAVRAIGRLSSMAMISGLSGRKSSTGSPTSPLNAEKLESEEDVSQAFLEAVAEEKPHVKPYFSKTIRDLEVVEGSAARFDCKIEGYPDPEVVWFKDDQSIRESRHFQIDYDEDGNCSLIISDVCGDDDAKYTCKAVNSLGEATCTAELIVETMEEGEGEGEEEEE

IC50: 68.7 ± 13.3 µM
SMILES: C=CC[C@@H]1/C=C(\C)C[C@H](C)C[C@H](OC)[C@H]2O[C@@](O)(C(=O)C(=O)N3CCCC[C@H]3C(=O)O[C@H](/C(C)=C/[C@@H]3CC[C@@H](O)[C@H](OC)C3)[C@H](C)[C@@H](O)CC1=O)[C@H](C)C[C@@H]2OC [tacrolimus]
